Measured values published in US20220227759A1, “AMORPHOUS PI3K INHIBITOR AND PHARMACEUTICAL COMPOSITION COMPRISING SAME” (BORYUNG PHARMACEUTICAL CO., LTD, priority 2019, published 2022).

Assay: Pharmacokinetic (PK) test
Format: in vivo
Settings: beagle dog, 100 mg, PO, capsule
Experimental: A pharmacokinetic (PK) experiment was performed on the amorphous compound of Example 1.
The powder of the amorphous compound of Example 1 was filled into a capsule in an amount of 100 mg, and the capsule was orally administered to a beagle dog at 100 mg once a day, and then the biokinetics of the drug was confirmed.
Specifically, 100 mg of the amorphous compound was orally administered to the beagle dog, and blood was collected at a predetermined time, so as to measure a concentration of (S)-4-((1-(4,8-dichloro-1-oxo-2-phenyl-1,2-dihydroisoquinoline-3-yl)ethyl)amino)pyrido[2,3-d]pyrimidine-5(8H)-one. With respect to pharmacokinetic parameters, the BA Calc 2007 program was used to calculate an area under the plasma concentration-time curve from dosing time to final plasma concentration quantification time t (AUCt), an area under the plasma concentration-time curve from dosing time to infinite time (AUCi), peak plasma concentration (Cmax), time for peak plasma concentration (Tmax), and terminal elimination half-life (t1/2). As a result, a significance between substances was confirmed by Student t-test (SPSS) at a 95% confidence interval, and the results thereof are shown in table 4 below.

- blood concentration: high blood concentration
Compound: C[C@H](Nc1ncnc2[nH]ccc(=O)c12)c1c(Cl)c2cccc(Cl)c2c(=O)n1-c1ccccc1 [Example 1, (S)-4-((1-(4,8-dichloro-1-oxo-2-phenyl-1,2-dihydroisoquinoline-3-yl)ethyl)amino)pyrido[2,3-d]pyrimidin-5(8H)-one]
